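Five compound concentrations were applied to cells in 96-well plates for 48 hours; endpoints were derived by simple linear interpolation of the resulting dose-response curve. GI50 is the concentration that inhibits growth by half.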 Calls of active or inactive are those of the source. No stated cut-off is given here; in the data, active = GI50 up to about 1.1 µM and inactive = higher. Non-standard residues stand in square brackets, D forms with d. Residues, ends and D or L forms follow the SMILES beside them. *: point of attachment. Ac5c = NC1(C(=O)O)CCCC1; Cbz = O=C(OCc1ccccc1)*; Boc = CC(C)(C)OC(=O)*; tBu = CC(C)(C)*
Experiments:
Assay in all cases: NCI tumour cell line growth inhibition, 48 h
HOP-92 = test system: HOP-92
U-251 = test system: U-251
UACC-257 = test system: UACC-257
EKVX = test system: EKVX
SF-539 = test system: SF-539
HCC 2998 = test system: HCC 2998
K562 = test system: K562
MOLT-4 = test system: MOLT-4
PC-3 = test system: PC-3
SW-620 = test system: SW-620
SR = test system: SR
UACC-62 = test system: UACC-62
786-0 = test system: 786-0
HL-60 = test system: HL-60
SK-MEL-5 = test system: SK-MEL-5
Malme-3M = test system: Malme-3M
RXF 393 = test system: RXF 393
UO-31 = test system: UO-31
DU-145 = test system: DU-145
CAKI-1 = test system: CAKI-1

| SMILES | GI50 (HOP-92) | GI50 (U-251) | GI50 (UACC-257) | GI50 (EKVX) | GI50 (SF-539) | GI50 (HCC 2998) | GI50 (K562) | GI50 (MOLT-4) | GI50 (PC-3) | GI50 (SW-620) | GI50 (SR) | GI50 (UACC-62) | GI50 (786-0) | GI50 (HL-60) | GI50 (SK-MEL-5) | GI50 (Malme-3M) | GI50 (RXF 393) | GI50 (UO-31) | GI50 (DU-145) | GI50 (CAKI-1) |
| --- | --- | --- | --- | --- | --- | --- | --- | --- | --- | --- | --- | --- | --- | --- | --- | --- | --- | --- | --- | --- |
| COCC1OC(OC2C3=C(C(C)C)CCC3(C)/C=C3\C(CCC3(O)COC)C(C)C2O)C(O)C2OC3OC12OC3(C)C1CO1 (centres undefined) | 17.2 µM (inactive) | 24 µM (inactive) | 40.3 µM (inactive) | 37.5 µM (inactive) | 24.8 µM (inactive) | 42.2 µM (inactive) | 25.1 µM (inactive) | 27.6 µM (inactive) | 35 µM (inactive) | 34.4 µM (inactive) | 41.8 µM (inactive) | 21.9 µM (inactive) | 60.8 µM (inactive) | 16.3 µM (inactive) | 18 µM (inactive) | 34.7 µM (inactive) | 21.2 µM (inactive) | 16.4 µM (inactive) | 72.6 µM (inactive) | 21.8 µM (inactive) |
| C=C1C(=O)O[C@@]23C1CC[C@@H](C)C2CC[C@@]1(C)OC31 (some centres undefined) | 8.79 µM (inactive) | 6.35 µM (inactive) | 6.75 µM (inactive) | 12.5 µM (inactive) | 3.24 µM (inactive) | 4.9 µM (inactive) | 7.78 µM (inactive) | 3.61 µM (inactive) | 5.05 µM (inactive) | 8.81 µM (inactive) | 3.71 µM (inactive) | 12.1 µM (inactive) | 5.71 µM (inactive) | 2.72 µM (inactive) | 3.24 µM (inactive) | 2.08 µM (inactive) | 16.7 µM (inactive) | 5.69 µM (inactive) | 3.85 µM (inactive) | 5.75 µM (inactive) |
| CCOC(=O)C1C(=O)C=C(c2cc(C)ccc2O)CC1c1cccc(Cl)c1 (centres undefined) | 13.5 µM (inactive) | 18.5 µM (inactive) | 2.12 µM (inactive) | 30.1 µM (inactive) | 19.6 µM (inactive) | 24.5 µM (inactive) | 12.9 µM (inactive) | 22.6 µM (inactive) | 11.5 µM (inactive) | 29 µM (inactive) | 5.21 µM (inactive) | 13.9 µM (inactive) | 36.6 µM (inactive) | 25.8 µM (inactive) | 19.2 µM (inactive) | 17.3 µM (inactive) | 19.3 µM (inactive) | 19.6 µM (inactive) | 50.1 µM (inactive) | 30.7 µM (inactive) |
| COc1cc2c(cc1OCCCC(=O)Nc1cc(C(=O)Nc3cc(C(=O)Nc4cc(C(=O)NCCCN(C)C)n(C)n4)n(C)c3)n(C)c1)N=CC1CCCN1C2=O (centres undefined) | 21.3 µM (inactive) | 23.9 µM (inactive) | 19.7 µM (inactive) | 74 µM (inactive) | 23.1 µM (inactive) | 28.1 µM (inactive) | 5.2 µM (inactive) | 4.01 µM (inactive) | 23.6 µM (inactive) | 20.6 µM (inactive) | 3.76 µM (inactive) | 19.1 µM (inactive) | 22.3 µM (inactive) | 2.52 µM (inactive) | 19.5 µM (inactive) | 18.7 µM (inactive) | 19.8 µM (inactive) | 22.2 µM (inactive) | 32.1 µM (inactive) | 25.1 µM (inactive) |
| CC(=O)/C=C/C1=C(C)CCCC1(C)CC(C)C (centres undefined) | 6.73 µM (inactive) | 26.7 µM (inactive) | 22.2 µM (inactive) | 39.7 µM (inactive) | 31.9 µM (inactive) | 17.6 µM (inactive) | 16 µM (inactive) | 17.7 µM (inactive) | 35 µM (inactive) | 18.6 µM (inactive) | 16 µM (inactive) | 22.4 µM (inactive) | 19 µM (inactive) | 11.7 µM (inactive) | 16.9 µM (inactive) | 30.6 µM (inactive) | 14.8 µM (inactive) | 36.9 µM (inactive) | 69.3 µM (inactive) | 42.8 µM (inactive) |
| COc1ccc2ccccc2c1/C=C/C(=O)c1ccccc1 | 1.69 µM (inactive) | 1.95 µM (inactive) | 4.05 µM (inactive) | 3.61 µM (inactive) | 2.74 µM (inactive) | 1.66 µM (inactive) | 1.93 µM (inactive) | 2.84 µM (inactive) | 4 µM (inactive) | 2.54 µM (inactive) | 1.06 µM (active) | 2.89 µM (inactive) | 2.87 µM (inactive) | 1.7 µM (inactive) | 4.19 µM (inactive) | 9.33 µM (inactive) | 1.33 µM (inactive) | 2.82 µM (inactive) | 2.4 µM (inactive) | 4.8 µM (inactive) |
| COC(=O)C1(NC(=O)C(Cc2ccccc2)NC(=O)C(NC(=O)C(CCCCNC(=O)OC(C)(C)C)NC(=O)C(Cc2c[nH]c3ccccc23)NC(=O)C(Cc2ccccc2)NC(=O)OCc2ccccc2)C(C)OC(C)(C)C)CCCC1 (centres undefined) (Cbz-FWK(Boc)T(tBu)F[Ac5c]-OMe; configuration not given here) | 68.9 µM (inactive) | 34 µM (inactive) | > 100 µM (inactive) | > 100 µM (inactive) | > 10 µM (inactive) | > 100 µM (inactive) | > 100 µM (inactive) | – | > 100 µM (inactive) | 51.6 µM (inactive) | > 100 µM (inactive) | > 100 µM (inactive) | > 100 µM (inactive) | > 100 µM (inactive) | 3.96 µM (inactive) | > 100 µM (inactive) | > 100 µM (inactive) | > 100 µM (inactive) | > 100 µM (inactive) | > 100 µM (inactive) |
